The target of this experiment is T1, Akaluc (Photinus pyralis, UniProt P08659).
T1 construct: Akaluc, multiply mutated firefly luciferase; stably expressed in HEK cells
In words: live-cell bioluminescence imaging. Type of experiment: cell-based. The following applies: HEK cells expressing Akaluc; 0.1 mM substrate; 660 nm filter.

Where a name gives a salt, the structure may show the parent alone.

T1 sequence (P08659 whole entry): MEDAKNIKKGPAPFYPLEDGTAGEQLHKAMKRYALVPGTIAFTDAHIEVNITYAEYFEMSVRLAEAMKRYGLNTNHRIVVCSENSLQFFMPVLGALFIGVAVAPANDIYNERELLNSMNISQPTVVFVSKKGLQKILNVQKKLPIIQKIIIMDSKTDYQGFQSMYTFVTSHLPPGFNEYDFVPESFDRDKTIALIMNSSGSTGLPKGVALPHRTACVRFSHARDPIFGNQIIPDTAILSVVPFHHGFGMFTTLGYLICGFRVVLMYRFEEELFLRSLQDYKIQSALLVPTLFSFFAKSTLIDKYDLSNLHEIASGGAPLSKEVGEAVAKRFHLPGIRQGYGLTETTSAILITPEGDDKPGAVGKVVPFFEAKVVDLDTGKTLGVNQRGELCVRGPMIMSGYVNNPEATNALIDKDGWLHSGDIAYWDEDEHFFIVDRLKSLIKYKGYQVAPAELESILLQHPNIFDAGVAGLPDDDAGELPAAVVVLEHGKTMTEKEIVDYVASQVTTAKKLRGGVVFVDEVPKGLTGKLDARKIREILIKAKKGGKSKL

For the molecule `CN(C)c1ccc(/C=C/C=C/C2=N[C@@H](C(=O)O)CS2)cc1` [AkaLumine-HCl], the live-cell bioluminescence imaging entry is “Akaluc yielded the brightest photon emission with AkaLumine-HCl”.

The values above are taken from publication PMC7811125, “Red-shifted click beetle luciferase mutant expands the multicolor bioluminescent palette for deep tissue imaging” (iScience, 2020).
